# Test results reported in patent publication US5808151A, “Biphenylamido derivatives as melatonergic agents” (Bristol-Myers Squibb Company, priority 1997, dated 1998).
# Legend:
# [1] = target: T1, ML1a human melatonin receptor (Homo sapiens, UniProt P48039); assay: Melatonergic binding: ML1a human melatonin receptor binding (2-[125I]-iodomelatonin, COS-1 cell membranes); conditions: human ML1a in COS-1 cells; 37° C., 1 hour; read-out: In-Vitro Receptor Binding Activities ML1a (IC50)
# T1 construct: expressed in transfected cells; host or cells: COS-1 cells
# Protocol: (§1) The melatonergic binding of the compounds of Formula I was determined by the method of Reppert, S. M., et al., as described in Neuron, Vol. 13, 1177-1185 (1994) and Proc. Nat. Acad. Sci. USA, 92, 8734-8738 (1995) and also as described by Stankov, B., et al., "Characterization and mapping of melatonin receptors in the brain of three mammalian species: Rabbit, horse and sheep," in Neuroendocrinology, 53, 214-221 (1991). The assays were incubated at 37° C. for 1 hour, and the reaction was terminated by filtration through a Brandel cell harvester. The filters were washed 3 times with wash buffer. […] The reagents, membranes, and techniques used in the melatonergic binding assays are more fully described below:
# (§2) (a) 50 mM Tris buffer containing 12.5 mM MgCl2 and 2 mM EDTA (pH 7.4 at 37° C.).
# (§3) (b) Wash buffer: 20 mM Tris base containing 2 mM MgCl2 (pH 7.4 at room temperature).
# (§4) (c) 6-Chloromelatonin (10^-5 M final concn.).
# (§5) (d) 2-[^125 I]-Iodomelatonin. Source: New England Nuclear
# The cDNA (human ML1a) was introduced into COS-1 cells by the DEAE-dextran method. Three days later, the media was removed, the plates washed with phosphate buffered saline, the cells removed using Hank's balanced salt solution and pelleted. The supernatant was discarded and the pellets frozen. For preparing membrane homogenates, the pellets are thawed on ice, and resuspended in TME buffer [Tris base, MgCl2, EDTA (pH 7.4 at 37° C.], supplemented with aprotinin, leupeptin and phenylmethyl-sulfonylfluoride. The cells were then homogenized using a dounce homogenizer and centrifuged. The resulting pellet was resuspended with a dounce homogenizer in TME and frozen. On the day of assay, a small aliquot was thawed on ice and resuspended in TME buffer (1:1000).
# [2] = target: ML1 rabbit melatonin receptor; assay: Melatonergic binding: ML1 rabbit melatonin receptor binding (2-[125I]-iodomelatonin, rabbit parietal cortex); set-up: species or system rabbit (Male New Zealand white); conditions: 37° C., 1 hour, read-out: In-Vitro Receptor Binding Activities ML1 (IC50)
# Protocol: as §1, §2, §3, §4, §5
# Male New Zealand white rabbits (Hazelton Research) are decapitated, the brains are rapidly removed and chilled. The parietal cortex is crudely dissected and the tissue frozen on dry ice at -80° C. until assayed. Tissue is weighed and thawed in 20 mls of ice-cold Tris buffer (a) and then homogenized by treatment with a polytron for 10 seconds at setting 17. Ice cold Tris (a) is added to a volume of 40 ml. The homogenate is centrifuged in a Sorvall-SS-34 head at 19,000 rpm (44,000× g) for 20 min at 4° C. The resulting supernatant is decanted and discarded. The pellet is re-homogenized in an additional 20 ml of Tris buffer, diluted and centrifuged as before. The supernatant is decanted and discarded. The resulting pellet is homogenized in 20 volumes of Tris buffer per gram of original tissue (a 1:20 homogenate), chilled, and held on ice until assayed.
# T1 sequence (P48039 whole entry): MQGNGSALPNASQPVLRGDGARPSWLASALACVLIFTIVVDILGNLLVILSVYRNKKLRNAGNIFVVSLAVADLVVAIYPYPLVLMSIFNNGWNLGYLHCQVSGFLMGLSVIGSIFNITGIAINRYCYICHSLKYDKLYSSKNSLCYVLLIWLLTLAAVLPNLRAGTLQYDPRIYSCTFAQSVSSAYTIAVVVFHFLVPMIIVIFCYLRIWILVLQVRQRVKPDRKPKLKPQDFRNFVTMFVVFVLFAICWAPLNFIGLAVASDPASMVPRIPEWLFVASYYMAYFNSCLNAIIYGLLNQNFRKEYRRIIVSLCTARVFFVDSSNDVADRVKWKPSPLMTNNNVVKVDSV
SMILES,IC50 [1],IC50 [2]
"CCC(=O)Nc1cccc(-c2cccc(OC)c2)c1 [Example 4, N-(3'-Methoxy-[1,1 '-biphenyl]-3-yl)propanamide]",< 100 nM,
"COc1cccc(-c2ccccc2CNC(=O)C(C)C)c1 [Example 8, N-[(3'-Methoxy[1,1'-biphenyl]-2-yl)methyl]-2-methylpropanamide]",100 to 300 nM,< 10 nM
"CCNC(=O)NCc1cccc(-c2cccc(OC)c2)c1 [Example 12, N-Ethyl N'-[(3'-methoxy-[1,1'-biphenyl]-3-yl)methyl]urea]",> 300 nM,10 to 50 nM
"CCNC(=O)Nc1cccc(-c2cccc(OC)c2)c1 [Example 6, N-Ethyl N'-(3'-methoxy-[1,1'-biphenyl]-3-yl)urea]",> 300 nM,> 50 nM
"COc1cccc(-c2cccc(NC(=O)C3CC3)c2)c1 [Example 3, N-(3'-Methoxy-[1,1'-biphenyl]-3-yl)cyclopropanecarboxamide]",< 100 nM,
"CCCC(=O)NCc1cccc(-c2cccc(OC)c2)c1 [Example 10, N-[(3'-methoxy-[1,1'-biphenyl]-3-yl)methyl]butanamide]",> 300 nM,10 to 50 nM
"COc1cccc(-c2cccc(CNC(=O)C(C)C)c2)c1 [Example 11, N-[(3'-methoxy-[1,1'-biphenyl]-3-yl)methyl]-2-methylpropanamide]",100 to 300 nM,< 10 nM
"CCCC(=O)Nc1cccc(-c2cccc(OC)c2)c1 [Example 1, N-(3'-Methoxy-[1,1'-biphenyl]-3-yl)butanamide]",< 100 nM,< 10 nM
"COCC(=O)Nc1cccc(-c2cccc(OC)c2)c1 [Example 5, N-(3'-Methoxy-[1,1'-biphenyl]-3-yl)-2-methoxyacetamide]",> 300 nM,
"COc1cccc(-c2cccc(NC(=O)C(C)C)c2)c1 [Example 2, N-(3'-Methoxy-[1,1'-biphenyl]-3-yl)2-methylpropanamide]",< 100 nM,> 50 nM
"CCNC(=O)NCc1ccccc1-c1cccc(OC)c1 [Example 9, N-Ethyl N'-[(3'-methoxy[1,1'-biphenyl]-2-yl)methyl]urea]",100 to 300 nM,< 10 nM
"CCCC(=O)NCc1ccccc1-c1cccc(OC)c1 [Example 7, N-[(3'-Methoxy[1,1'-biphenyl]-2-yl)methyl]butanamide]",100 to 300 nM,10 to 50 nM
